The target in experiment [1] is angiotensin II receptor (rat uterine membranes). As to the kind of experiment: Angiotensin II binding assay (125I-angiotensin II, rat uterine membranes). As for the experimental part: Other chemicals were obtained from Sigma Chemical Co.
Rat uterine membranes were prepared from fresh tissue. All procedures were carried out at 4° C. Uteri were stripped of fat and homogenized using a Polytron for 25 sec in 20 volumes of ice-cold Dulbecco's phosphate-buffered saline pH 7.5 (Gibso Labs) containing 5 mM EDTA. The homogenate was centrifuged at 1500× g for 20 min., and the supernatant was recentrifuged at 100,000× g for 60 min. The pellet was resuspended in buffer consisting of 2 mM EDTA and 50 mM Tris-HCl, pH 7.5 to a final protein concentration of 4 mg/ml.
The reaction was initiated by the addition of 50 μg of membrane protein and the mixture was incubated at 25° C. for 30 min. The incubation was terminated with ice-cold 50 mM Tris-HCl; pH 7.5 and the mixture was filtered to separate membrane-bound labelled peptide from the free ligand. The incubation tube and filter were washed with ice-cold buffer. Filters were assayed for radioactivity in a Micromedic gamma counter. Nonspecific binding was defined as binding in the presence of 10 μM of unlabelled AII. Specific binding was calculated as total binding minus nonspecific binding. Binding data was analyzed by a nonlinear least-squares curve fitting program.

Experiment [2] deals with T1, angiotensin II (AII) contraction of rabbit aortic rings (Oryctolagus cuniculus, UniProt P34976).
T1 construct: The thoracic aorta was removed, cleaned of adherent fat and connective tissue and then cut into 3-mm ring segments; from tissue; host or cells: rabbit thoracic aorta rings, endothelium removed
T1 sequence (P34976 1-359): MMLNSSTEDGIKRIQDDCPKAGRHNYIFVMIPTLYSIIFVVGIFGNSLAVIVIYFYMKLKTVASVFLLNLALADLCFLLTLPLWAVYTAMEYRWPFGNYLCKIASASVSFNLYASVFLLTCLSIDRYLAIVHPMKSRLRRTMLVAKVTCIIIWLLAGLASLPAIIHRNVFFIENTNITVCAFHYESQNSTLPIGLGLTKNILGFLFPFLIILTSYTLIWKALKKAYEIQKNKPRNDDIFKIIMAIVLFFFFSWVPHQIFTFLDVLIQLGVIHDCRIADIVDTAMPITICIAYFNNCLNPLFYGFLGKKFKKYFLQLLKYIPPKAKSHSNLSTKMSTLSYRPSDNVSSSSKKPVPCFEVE
The experiment can be described thus: In vitro myotropic screening assay for AII antagonists in rabbit aortic rings. It is filed as cell-based. To be noted: pA2 determined according to Schild. On the procedure:
The compounds of the invention were tested for agonist and antagonist activity in rabbit aortic rings. Male New Zealand white rabbits (2-2.5 kg) were sacrificed using an overdose of pentobarbital and exsanguinated via the carotid arteries. The thoracic aorta was removed, cleaned of adherent fat and connective tissue and then cut into 3-mm ring segments. The endothelium was removed from the rings by gently sliding a rolled-up piece of filter paper into the vessel lumen. The rings were then mounted in a water-jacketed tissue bath, maintained at 37° C., between a moveable and a fixed stainless steel wire, with the moveable end attached to an FT03 Grass transducer coupled to a Model 7D Grass Polygraph for recording isometric force responses. […] The preparations were equilibrated for one hour before approximately one gram of passive tension was placed on the rings. For the agonist assay, the rings were exposed to increasing concentrations of the test compound, at 30 minute intervals, during which time the tissue was washed three times with 20 ml of fresh Krebs solution. For the measurement of antagonistic activity, paired rings from the same rabbits were used; one was exposed to increasing concentrations of AII (at 30 minute intervals), and a second ring was exposed to increasing concentrations of AII in the presence of the test compound which was added five minutes prior to the addition of AII. The concentration response curves for AII in the presence of the antagonist were evaluated in terms of the percent of the maximal contraction of the control ring exposed only to AII. pD2 values for AII were calculated from the AII concentration response curves while pA2s were determined according to Schild.

The test system of a further experiment is angiotensin II. The conditions noted are these: literature; cited from earlier work.
In the next experiment the test system is AII pressor response. As to the kind of experiment: In vivo pressor screening assay for AII antagonists, intravenous administration. On the set-up: species or system rat (male Sprague Dawley). The conditions noted are these: rat, @ 10 mg. On the procedure: Male Sprague Dawley rats weighing […] were anesthetized with Inactin (100 mg/kg), a catheter was inserted into the trachea and the carotid artery and the jugular vein were cannulated. Arterial pressure was measured from the carotid artery cannula and continuously recorded (Gould, Cleveland, OH). The jugular vein cannula was used for injections of angiotensin II (AII), mecamylamine, atropine and the test compound. The animal was allowed to equilibrate for 30 minutes. Mecamylamine (3 mg/kg, 0.3 mg/kg) and atropine (400 μg/kg, 0.3 ml/kg) were then given iv to produce ganglion blockage. These compounds were administered every 90 minutes throughout the screening procedure. Angiotensin II was given in bolus doses ([…] in saline with 0.5% bovine serum albumin, 0.1 ml/kg) every 10 minutes consecutively three times or until the increase in arterial pressure produced was within 3 mm Hg for two consecutive injections. The last two AII injections are averaged and are referred to as the control response to AII. […] AII injections were then given 1, 5, 10, 20, 30, 45, 60, 75, 90, and 120 minutes after administration of the test compound and the response of arterial pressure monitored. […]

The next experiment deals with angiotensin II receptors. To be noted: background; cited from earlier work.
Setting [3] is: IC50, 125I-AII, rat uterine membranes, 25° C., 30 min.

In general, IC50 refers to the concentration that gives 50% inhibition. Higher therefore signals lower potency. A word on the pA2: it is a measure of antagonist potency on a negative log scale. Read a low pA2 as a weaker antagonist. The Kb is the equilibrium dissociation constant of an antagonist, usually derived from a functional assay.

“4'-[[5(7)-benzyl-7(5)hydrido-2-butyl-6(1H)-cycloheptimidazolon-1-yl]methyl]-[1,1'-biphenyl]-2-carboxylic acid [Example 14]”: the IC50 in experiment [1] (setting [3]) was 2300 nM; in experiment [1] (meaning not explained), 108 nM. Besides, in experiment [2], the pA2 is given as 6.1.

Take `CCCCc1nc2cc(O)c(=O)c(Cl)cc2n1Cc1ccc(-c2ccccc2C(=O)O)cc1` [Example 11, 4'-[[5(7)-hydroxy-7(5)chloro-2-butyl-6(1H)-cycloheptimidazolon-1-yl]methyl]-[1,1'-biphenyl]-2-carboxylic acid]: in experiment [1] (setting [3]), the IC50 is 7100 nM. The same compound displayed a pA2 in experiment [2] of 6.4.

For `CCCCc1nc(Cl)c(CC(=O)O)n1Cc1ccccc1[N+](=O)[O-]` [2-butyl-4-chloro-1-(2-nitrobenzyl)imiadzole-5-acetic acid], the “angiotensin II antagonist activity” value in the experiment with angiotensin II is on record as “specific competitive angiotensin II antagonist activity”.

Take `CCCc1nc2ccc(=O)ccc2n1Cc1ccc(-c2ccccc2C(=O)O)cc1` [Example 5, 4'-[[2-propyl-6(1H)-cycloheptimidazolon-1-yl]methyl]-[1,1'-biphenyl]-2-carboxylic acid]: the values for the IC50 in experiment [1] (setting [3]) and in experiment [1] (meaning not explained) were 1400 nM and 349 nM, respectively. This compound also showed a Kb in experiment [2] of 1260 nM.

As for `CCCCc1nc2ccc(=O)ccc2n1Cc1ccc(-c2ccccc2C(=O)O)cc1` [Example 3, 4'-[[2-butyl-6(1H)-cycloheptimidazolon-1-yl]methyl]-[1,1'-biphenyl]-2-carboxylic acid], the IC50 in experiment [1] (setting [3]) was 1400 nM; in experiment [1] (meaning not explained) it was 24 nM. In experiment [2], this compound gave a Kb of 1260 nM.

In the case of `CCCCc1nc2cc(C(=O)O)c(=O)c(C(=O)O)cc2n1Cc1ccc(-c2ccccc2C(=O)O)cc1` [Example 2, 4'-[[5,7-dicarboxy-2-butyl-6(1H)-cycloheptimidazolon-1-yl]methyl]-[1,1'-biphenyl]-2-carboxylic acid], the IC50 in experiment [1] (setting [3]) was 500 nM; in experiment [1] (meaning not explained), 140 nM. The compound further gave a Kb in experiment [2] of 251 nM. The “Antagonism of the AII pressor response, maximal inhibition, I.V.” value with AII pressor response turned out to be 100%.

Consider `CCCCCc1nc2cc(C)c(=O)c(C)cc2n1Cc1ccc(-c2ccccc2C(=O)O)cc1` [Example 6, 4'-[[5,7-dimethyl-2-pentyl-6(1H)-cycloheptimidazolon-1-yl]methyl]-[1,1'-biphenyl]-2-carboxylic acid], for which the results for the IC50 in experiment [1] (setting [3]) and in experiment [1] (meaning not explained) were 2500 nM and 230 nM, respectively. In experiment [2], this compound gave a Kb of 7940 nM.

With `CCCc1nc2cc(C(=O)O)c(=O)c(C(=O)O)cc2n1Cc1ccc(-c2ccccc2C(=O)O)cc1` [Example 4, 4'-[[5,7-dicarboxy-2-propyl-6(1H)-cycloheptimidazolon-1-yl]methyl]-[1,1'-biphenyl]-2-carboxylic acid], the IC50 in experiment [1] (setting [3]) is 2300 nM; in experiment [1] (meaning not explained) it was 550 nM. This compound had a Kb in experiment [2] of 1000 nM.

With `CCCCc1nc2cc(C(=O)O)c(=O)c(COC)cc2n1Cc1ccc(-c2ccccc2C(=O)O)cc1` [Example 12, 4'-[[5(7)-carboxy-7(5)methoxymethyl-2-butyl-6(1H)-cycloheptimidazolon-1-yl]methyl]-[1,1'-biphenyl]-2-carboxylic acid], the IC50 in experiment [1] (setting [3]) was found to be 4000 nM; in experiment [1] (meaning not explained), 390 nM. Besides, the pA2 in experiment [2] was determined as 6.8.

Consider `CCCCc1nc2cc(C(C)C)c(=O)c(-c3ccccc3)cc2n1Cc1ccc(-c2ccccc2C(=O)O)cc1` [Example 10, 4'-[[5(7)-isopropyl-7(5)phenyl-2-butyl-6(1H)-cycloheptimidazolon-1-yl]methyl]-[1,1'-biphenyl]-2-carboxylic acid], for which the results for the half-maximal inhibitory concentration (IC50) in experiment [1] (setting [3]) and in experiment [1] (meaning not explained) were 2000 nM and 161 nM, respectively. In experiment [2], this compound gave a pA2 of 5.6.

For the compound `CNCC(=O)N[C@@H](CCCN=C(N)N)C(=O)N[C@H](C(=O)N[C@@H](Cc1ccc(O)cc1)C(=O)N[C@H](C(=O)N[C@@H](Cc1cnc[nH]1)C(=O)N1CCC[C@H]1C(=O)N[C@@H](C)C(=O)O)C(C)C)C(C)C` [Saralasin], the “residual agonist activity” value in the experiment on angiotensin II receptors is reported as “significant residual agonist activity”.

With `CCCc1nc2ccc(=O)c(Cc3ccccc3)cc2n1Cc1ccc(-c2ccccc2C(=O)O)cc1` [Example 13, 4'-[[5(7)-hydrido-7(5)benzyl-2-propyl-6(1H)-cycloheptimidazolon-1-yl]methyl]-[1,1'-biphenyl]-2-carboxylic acid], the IC50 in experiment [1] (setting [3]) came to 1900 nM; in experiment [1] (meaning not explained) it was 38 nM. In experiment [2], this compound displayed a pA2 of 5.5.

For the compound “angiotensin III: heptapeptide {[des Asp^1 ]angiotensin II}”, in the experiment with angiotensin II receptors, the “vasoconstrictor potency” value was “less potent as a vasoconstrictor than angiotensin II”.

As to `CCCCc1nc(Cl)c(CC(=O)O)n1Cc1ccccc1Cl` [2-n-butyl-4-chloro-1-(2-chlorobenzyl) imidozole-s-acetic acid], the “angiotensin II antagonist activity” value in the experiment with angiotensin II is “specific competitive angiotensin II antagonist activity”.

As for `CCCCc1nc2cc(-c3ccccc3)c(=O)c(-c3ccccc3)cc2n1Cc1ccc(-c2ccccc2C(=O)O)cc1` [Example 7, 4'-[[5,7-diphenyl-2-butyl-6(1H)-cycloheptimidazolon-1-yl]methyl]-[1,1'-biphenyl]-2-carboxylic acid], the IC50 came to 800 nM in experiment [1] (setting [3]) and 117 nM in experiment [1] (meaning not explained). In addition, the Kb in experiment [2] is 316 nM.

As for `CCCCCc1nc2cc(C)c(=O)c(C)cc2n1Cc1ccc(-c2ccccc2-c2nn[nH]n2)cc1` [Example 20, 1-{2'-[(tetrazol-5-yl)-biphenyl-4-yl]methyl}-2-pentyl-5,7-dimethyl-cycloheptimidazolone], the IC50 in experiment [1] (setting [3]) stood at 710 nM; in experiment [1] (meaning not explained) it was 324 nM.

“angiotensin II: octapeptide, the primary active species of the renin-angiotensin system (DRVYIHPF; Angiotensin-2; UniProt P01019 25-32, looked up)”: the “vasoconstrictor potency” value in the experiment on angiotensin II receptors is recorded as “very potent vasoconstrictor agent”.

(Values after patent US5104891A, “Cycloheptimidazolone compounds as angiotensin II antagonists for control of hypertension” (G. D. Searle & Co., priority 1989, dated 1992).)
